Data reported in patent US11053476B2, “Generation of cancer stem cells and use thereof” (EXOSTEM BIOTEC LTD., priority 2016, dated 2021).

Tested on: CSCs generated from differentiated cancer cells
Assay: Self-renewal of CSCs (secondary tumorspheres) generated from differentiated cancer cells, factor added to basic protocol
Type: cell-based
Conditions: added to second incubation; data not shown
Procedure: (§1) In order to generate CSCs in vitro, both primary differentiated cancer cells (primary glioma cells) as well as cells from a cancer cell line (U87 cells) were obtained. Glioma cells and U87 cells were trypsinized, and washed three times with medium +10% FCS. The cells were then resuspended in medium that was brought to a pH of 6.0 and were placed on a rotator and incubated for 45-90 minutes. The cells were then incubated in medium supplemented with EGF and FGF. The cells were optionally kept in mild hypoxic conditions (2-3% oxygen) during this second incubation and were then plated on bacterial plates.
(§2) Tumorspheres formed on these plates within one week and were removed from the cells that had attached to the dish. The tumorspheres were disaggregated and the cells were re-plated at limiting dilution to generate secondary spheroids. The secondary tumorspheres were then characterized for CSC specific markers, the ability to self-renew and the ability to generate tumors that recapitulate the parental tumors.
(§3) Knowing that the basic protocol for generating CSCs (acid, EGF/FGF and two rounds of sphere generation) was successful; several modifications to the protocol were examined. […] Second, a wide range of factors were found, that when supplemented to the EGF and FGF containing media, increased the efficacy of the protocol, either by increasing the number of CSCs produced or by increasing their stemness.

Compound	efficacy in enhancing dedifferentiation
insulin: insulin, added to the second incubation	effective
CCCC(CCC)C(=O)O [Valporic acid]	effective

Same assay, conditions: small molecule added to second incubation; FIG. 6A

Compound	effect on rate of self-renewal
C[C@@H](N)[C@H]1CC[C@H](C(=O)Nc2ccncc2)CC1 [Y-27632]	increase the rate of self-renewal
Nc1ncn([C@H]2C[C@H](O)[C@@H](CO)O2)c(=O)n1 [5-aza-2′-deoxycytidine]	increase the rate of self-renewal
O=C(O)CCCc1ccccc1 [4-phenylbutyrate]	increase the rate of self-renewal
Nc1nccc2c1ncn2[C@@H]1C=C(CO)[C@@H](O)[C@H]1O [3-deazaneplanocin A]	increase the rate of self-renewal
CCCCCCCCCCCCCC(=O)O[C@@H]1[C@@H](C)[C@@]2(O)[C@@H](C=C(CO)C[C@]3(O)C(=O)C(C)=C[C@@H]23)[C@@H]2C(C)(C)[C@]12OC(C)=O [PMA, phorbol 12-myristate 13-acetate, reference compound]	increase the rate of self-renewal
CCCCCCCCCCCCCC=CC(O)C(CO)NC(=O)CCCCC (stereo not shown) [Ceramide C6]	increase the rate of self-renewal
Cc1c[nH]c(-c2cnc(NCCNc3ccc(C#N)cn3)nc2-c2ccc(Cl)cc2Cl)n1 [CHIR99021]	increase the rate of self-renewal
N[C@@H]1C[C@H]1c1ccccc1 (racemic) [tranylcypromine]	increase the rate of self-renewal

Tested on: Sox2
Assay: Sox2 expression in generated CSCs, factor added to basic protocol
Type: cell-based
Conditions: PKC activation; FIG. 6B
Procedure: as §1, §2, §3

Compound	effect on Sox2 expression	effectiveness on Sox2 expression compared with PMA
PKC alpha: protein kinase C alpha; activators or overexpression	increase Sox2 expression	more effective that PMA
CCCCCCCCCCCCCC(=O)O[C@@H]1[C@@H](C)[C@@]2(O)[C@@H](C=C(CO)C[C@]3(O)C(=O)C(C)=C[C@@H]23)[C@@H]2C(C)(C)[C@]12OC(C)=O [PMA, phorbol 12-myristate 13-acetate, reference compound]	increase Sox2 expression	–

Tested on: differentiated cancer cells
Assay: Efficacy and penetrance of dedifferentiation with transcription and secreted factors
Type: cell-based
Conditions: expression in the cells or in their media during second incubation or tumorsphere formation
Procedure: as §1, §2
Lastly, several transcription factors and secreted factors that are known to enhance stemness or cancer progression were introduced into the differentiated cells during the second incubation or during tumorsphere formation.

Compound	effect on dedifferentiation brought about by the standard protocol
LIF: transcription or secreted factor expressed in the cells or in their media	increase the efficacy and penetrance of the dedifferentiation
STAT3: transcription or secreted factor expressed in the cells or in their media	increase the efficacy and penetrance of the dedifferentiation
NANOG: transcription or secreted factor expressed in the cells or in their media	increase the efficacy and penetrance of the dedifferentiation
